# Results reported in paper PMC4829348 (Journal of medicinal chemistry, 2016).
# Read-outs that look alike come from different tables or passages of the source.
# How the values were obtained:
# [1] = molecular target: T1, S31N mutant of the A/M2 protein (Influenza A virus, UniProt P0DOF5, S31N); assay type: biochemical
# [2] = test system: A/WSN/33 virus (M2-S31N); assay type: cell-based, influenza A virus; settings: for EC50: read-out: Plaque Reduction EC50
# [3] = molecular target: T1, S31N mutant of the A/M2 protein; settings: 100 µM drug; percent inhibition in TEVC assays was previously reported; cited from earlier work
SMILES,% S31N inhibition [1],other results
COc1ccc(-c2nnc(CNC34CC5CC(CC(C5)C3)C4)o2)cc1 [26d],58/N.T. %,–
CC1(O)C2CC3CC1CC(NCc1cc(-c4cccs4)on1)(C3)C2 (centres unmarked) [30c],87/48%,–
c1c(CNC23CC4CC(CC(C4)C2)C3)noc1C1CCC1 [14d],84/N.T. %,decrease of plaque number [2]: more than 50%
c1csc(-c2nc(CNC34CC5CC(CC(C5)C3)C4)cs2)c1 [26h],37/N.T. %,–
c1coc(-c2nc(CNC34CC5CC(CC(C5)C3)C4)no2)c1 [18h],73/N.T. %,–
CC(C)Cc1nc(CNC23CC4CC(CC(C4)C2)C3)no1 [18e],62/N.T. %,–
Brc1ccccc1-c1cc(CNC23CC4CC(CC(C4)C2)C3)no1 [14n],77/N.T. %,–
"NC12CC3CC(CC(C3)C1)C2 [AMT (1), amantadine, reference compound]",36%,–
c1csc(-c2cc(CNC34CC5CC(C3)C3(CO3)C(C5)C4)no2)c1 (centres unmarked) [30d],61/N.T. %,–
COCc1cc(CNC23CC4CC(CC(C4)C2)C3)no1 [14e],39/N.T. %,–
c1ccc(-c2nnc(CNC34CC5CC(CC(C5)C3)C4)o2)cc1 [26c],61/N.T. %,–
Oc1ccc(NC23CC4CC(CC(C4)C2)C3)c(O)c1 [compound 5],67%,–
c1c(CNC23CC4CC(CC(C4)C2)C3)noc1C1CC1 [14c],–,decrease of plaque number [2]: more than 50%
Cc1cc(CNC23CC4CC(CC(C4)C2)C3)no1 [14a],–,% S31N inhibition [3]: 49/N.T. %
COc1ccc(-c2cc(CNC34CC5CC(CC(C5)C3)C4)no2)cc1 [14q],–,% S31N inhibition [3]: 87/N.T. %
COc1ccsc1-c1cc(CNC23CC4CC(CC(C4)C2)C3)no1 [14k],90/87%,–
COc1ccc(-c2noc(CNC34CC5CC(CC(C5)C3)C4)n2)cc1OC [20a],39/N.T. %,–
Fc1cc(F)cc(-c2cc(CNC34CC5CC(CC(C5)C3)C4)no2)c1 [14o],78/N.T. %,–
c1csc(-c2nnc(CNC34CC5CC(CC(C5)C3)C4)s2)c1 [26b],83/N.T. %,–
COc1cccc(-c2cc(CNC34CC5CC(CC(C5)C3)C4)no2)c1 [14r],87/73%,–
c1c(C2CCCCC2)noc1CNC12CC3CC(CC(C3)C1)C2 [20c],67/N.T. %,–
Fc1cccc(F)c1-c1cc(CNC23CC4CC(CC(C4)C2)C3)no1 [14p],85/68%,–
OC1C2CC3CC1CC(NCc1cc(-c4cccs4)on1)(C3)C2 (centres unmarked) [30b],91/56%,EC50 [2]: < 1 µM
O=C1C2CC3CC1CC(NCc1cc(-c4cccs4)on1)(C3)C2 [30a],78/N.T. %,–

SMILES,% S31N inhibition [1],other results
COc1ccc(-c2nc(CNC34CC5CC(CC(C5)C3)C4)no2)c(OC)c1 [compound 18m],82/N.T. %,–
COc1ccccc1-c1noc(CNC23CC4CC(CC(C4)C2)C3)n1 [20b],58/N.T. %,–
c1csc(-c2nc(CNC34CC5CC(CC(C5)C3)C4)no2)c1 [18f],–,% S31N inhibition [3]: 83/N.T. %
c1cc(-c2nc(CNC34CC5CC(CC(C5)C3)C4)no2)cs1 [18g],81/N.T. %,–
CC(C)c1cc(CNC23CC4CC(CC(C4)C2)C3)no1 [14f],80/55%,–
COc1ccc(-c2cc(CNC34CC5CC(CC(C5)C3)C4)no2)c(OC)c1 [compound 14t],62/N.T. %,–
c1csc(-c2cc(CNC34CC5COC(CC(C5)C3)C4)no2)c1 (centres unmarked) [30e],72/N.T. %,–
c1coc(-c2cc(CNC34CC5CC(CC(C5)C3)C4)no2)c1 [14j],84/N.T. %,–
CCCc1nc(CNC23CC4CC(CC(C4)C2)C3)no1 [18b],77/19%,–
CSc1ccccc1-c1cc(CNC23CC4CC(CC(C4)C2)C3)no1 [14s],79/N.T. %,–
c1ccc(-c2cc(CNC34CC5CC(CC(C5)C3)C4)no2)cc1 [14l],–,% S31N inhibition [3]: 91/N.T. %
Clc1ccccc1-c1cc(CNC23CC4CC(CC(C4)C2)C3)no1 [14m],87/65%,–
c1csc(-c2ncc(CNC34CC5CC(CC(C5)C3)C4)s2)c1 [26e],75/N.T. %,–
c1cc(-c2cc(CNC34CC5CC(CC(C5)C3)C4)no2)cs1 [14i],90/N.T. %,–
OC12CC3CC(O)(C1)CC(NCc1cc(-c4cccs4)on1)(C3)C2 [compound 30h],88/45%,–
CSC(C)(C)Cc1cc(CNC23CC4CC(CC(C4)C2)C3)no1 [14g],70/N.T. %,–
c1ccc(-c2nc(CNC34CC5CC(CC(C5)C3)C4)no2)cc1 [18i],–,% S31N inhibition [3]: 75/N.T. %
c1csc(-c2nnc(CNC34CC5CC(CC(C5)C3)C4)o2)c1 [26a],52/N.T. %,–
Cc1nc(CNC23CC4CC(CC(C4)C2)C3)no1 [18a],–,% S31N inhibition [3]: 60/N.T. %
c1ccc(-c2nc(CNC34CC5CC(CC(C5)C3)C4)cs2)cc1 [26i],24/N.T. %,–
OC12CC3CC(C1)CC(NCc1cc(-c4cccs4)on1)(C3)C2 [compound 30f],–,EC50 [2]: < 1 µM
CCCc1cc(CNC23CC4CC(CC(C4)C2)C3)no1 [14b],81/49%,–
COc1ccc(-c2nc(CNC34CC5CC(CC(C5)C3)C4)no2)cc1 [18k],–,% S31N inhibition [3]: 86/N.T. %
CC(C)c1nc(CNC23CC4CC(CC(C4)C2)C3)no1 [18d],–,% S31N inhibition [3]: 70/N.T. %
